Test results taken from publication PMC10573892, “β-Lactam TRPM8 Antagonists Derived from Phe-Phenylalaninol Conjugates: Structure–Activity Relationships and Antiallodynic Activity” (International Journal of Molecular Sciences, 2023).

Tests used:
[1] = target: T1, hTRPV3 (Homo sapiens, UniProt Q8NET8); experiment: TRPV3 channel Ca2+ microfluorimetry (2-APB 30 μM); assay type: cell-based; settings: agonist 2-APB 30 μM
T1 construct: Eurofins-CEREP or Eurofins-PANLABS (contract assay)
T1 sequence (Q8NET8 1-790): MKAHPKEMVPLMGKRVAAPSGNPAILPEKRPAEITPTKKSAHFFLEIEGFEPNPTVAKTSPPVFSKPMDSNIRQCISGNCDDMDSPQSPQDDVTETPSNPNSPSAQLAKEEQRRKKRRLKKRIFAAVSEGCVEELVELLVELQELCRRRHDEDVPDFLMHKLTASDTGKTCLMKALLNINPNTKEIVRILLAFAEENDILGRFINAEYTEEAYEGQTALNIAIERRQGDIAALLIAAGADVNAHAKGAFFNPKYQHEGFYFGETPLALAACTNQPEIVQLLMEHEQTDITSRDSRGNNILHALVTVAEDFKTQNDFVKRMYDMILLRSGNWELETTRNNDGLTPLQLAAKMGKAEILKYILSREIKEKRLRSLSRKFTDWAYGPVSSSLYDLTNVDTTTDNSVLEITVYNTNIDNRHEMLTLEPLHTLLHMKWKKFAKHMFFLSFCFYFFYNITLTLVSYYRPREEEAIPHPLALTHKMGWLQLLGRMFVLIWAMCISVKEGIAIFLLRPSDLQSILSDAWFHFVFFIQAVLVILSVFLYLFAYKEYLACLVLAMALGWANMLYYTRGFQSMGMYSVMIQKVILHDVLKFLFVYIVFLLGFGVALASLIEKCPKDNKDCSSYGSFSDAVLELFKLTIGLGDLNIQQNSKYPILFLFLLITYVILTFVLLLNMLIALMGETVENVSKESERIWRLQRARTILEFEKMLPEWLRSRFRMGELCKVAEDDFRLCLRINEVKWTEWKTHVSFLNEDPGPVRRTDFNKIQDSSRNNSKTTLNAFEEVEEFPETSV
From the text: (§1) The effects of compound 34 have been evaluated on different ion channels and receptors implicated in pain-related processes to assess the selectivity for TRPM8 channels. First, some TRP channels that play a role in temperature integration and nociception were selected, including hTRPV1, hTRPV3, hTRPA1 and TRPM3. Additionally, the evaluation encompassed the hASIC3 channel with widespread distribution within the peripheral nervous system and contributions to the excitability of primary sensory neurons. In each instance, the compound was subjected to evaluation at a consistent concentration of 10 µM.
(§2) Calcium fluorometry, Patch-Clamp assays and in vivo experiments were performed using the methodology previously described for TRPM8 [35] or TRPM3 [61]. In the Patch -Clamp experiments, the intracellular pipette solution contained (in mM) 140 KCl, 5 EGTA, and 10 mM HEPES, adjusted to pH 7.2 with KOH, and the extracellular solution contained (in mM) 140 NaCl, 2 CaCl2, 1 MgCl2, 10 D-glucose and 10 HEPES, adjusted to pH 7.4 with NaOH. Selectivity against TRPV1, TRPV3, TRPA1 and ASIC3 was subcontracted to Eurofins-CEREP or Eurofins-PANLABS (see ref. [35] for more details).

[2] = target: T2, hTRPA1 (Homo sapiens, UniProt O75762); experiment: TRPA1 channel Ca2+ microfluorimetry (allylisothiocyanate 10 μM); assay type: cell-based; settings: agonist allylisothiocyanate 10 μM
T2 construct: Eurofins-CEREP or Eurofins-PANLABS (contract assay)
T2 sequence (O75762 whole entry): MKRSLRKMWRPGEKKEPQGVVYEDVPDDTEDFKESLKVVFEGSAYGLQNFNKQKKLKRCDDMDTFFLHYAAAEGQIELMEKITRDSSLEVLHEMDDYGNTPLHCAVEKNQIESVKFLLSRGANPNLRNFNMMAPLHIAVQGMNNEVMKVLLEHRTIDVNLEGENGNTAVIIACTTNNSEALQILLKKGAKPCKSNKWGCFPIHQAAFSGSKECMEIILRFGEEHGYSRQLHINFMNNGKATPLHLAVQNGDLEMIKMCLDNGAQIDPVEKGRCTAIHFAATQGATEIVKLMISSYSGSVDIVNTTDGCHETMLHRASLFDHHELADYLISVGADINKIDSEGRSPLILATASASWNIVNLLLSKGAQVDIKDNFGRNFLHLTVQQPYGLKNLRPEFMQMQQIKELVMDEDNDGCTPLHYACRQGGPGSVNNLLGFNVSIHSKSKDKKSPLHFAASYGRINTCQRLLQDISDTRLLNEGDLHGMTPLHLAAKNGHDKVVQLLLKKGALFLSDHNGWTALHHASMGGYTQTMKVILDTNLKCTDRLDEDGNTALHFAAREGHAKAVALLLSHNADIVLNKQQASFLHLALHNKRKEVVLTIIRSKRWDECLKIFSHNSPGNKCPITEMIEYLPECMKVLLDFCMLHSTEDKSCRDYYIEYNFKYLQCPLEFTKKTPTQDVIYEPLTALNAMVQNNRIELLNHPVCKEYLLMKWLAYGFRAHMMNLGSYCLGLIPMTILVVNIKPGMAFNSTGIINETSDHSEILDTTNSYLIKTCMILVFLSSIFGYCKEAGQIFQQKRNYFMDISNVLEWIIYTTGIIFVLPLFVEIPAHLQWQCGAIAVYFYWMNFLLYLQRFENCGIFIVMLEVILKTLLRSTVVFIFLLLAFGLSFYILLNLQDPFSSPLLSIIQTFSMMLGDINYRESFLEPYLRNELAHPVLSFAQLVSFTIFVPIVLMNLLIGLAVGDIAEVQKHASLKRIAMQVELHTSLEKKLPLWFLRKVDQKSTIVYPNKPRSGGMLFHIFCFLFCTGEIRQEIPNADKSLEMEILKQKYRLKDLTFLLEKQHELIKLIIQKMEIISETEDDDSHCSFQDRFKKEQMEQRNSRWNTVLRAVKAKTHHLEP
From the text: as §1, §2

[3] = target: hCB2 (Homo sapiens, UniProt P34972); experiment: Radioligand binding at cannabinoid CB2 receptor; settings: radioligand [3H]WIN 55212-2
hCB2, sequence (P34972 whole entry): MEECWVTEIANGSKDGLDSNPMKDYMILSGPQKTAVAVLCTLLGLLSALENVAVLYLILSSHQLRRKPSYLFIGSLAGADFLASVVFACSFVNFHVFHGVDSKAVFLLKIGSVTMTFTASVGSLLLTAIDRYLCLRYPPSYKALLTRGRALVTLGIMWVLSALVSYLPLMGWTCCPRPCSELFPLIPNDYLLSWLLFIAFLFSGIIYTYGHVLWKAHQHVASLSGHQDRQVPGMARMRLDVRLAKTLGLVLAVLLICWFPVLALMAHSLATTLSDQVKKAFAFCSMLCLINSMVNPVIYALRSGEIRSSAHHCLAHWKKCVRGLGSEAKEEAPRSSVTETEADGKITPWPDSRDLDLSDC
From the text: (§3) Furthermore, the investigation extended to measuring the binding affinity of compound 34 to calcitonin gene-related peptide hCGRPR, cannabinoid hCB2 and muscarinic hM3 receptors, which are all relevant to different pain conditions.

[4] = target: T3, hTRPV1 (Homo sapiens, UniProt Q8NER1); experiment: TRPV1 channel Ca2+ microfluorimetry (capsaicin 30 nM); assay type: cell-based; settings: 10 μM; agonist capsaicin 30 nM
T3 construct: Eurofins-CEREP or Eurofins-PANLABS (contract assay)
T3 sequence (Q8NER1 whole entry): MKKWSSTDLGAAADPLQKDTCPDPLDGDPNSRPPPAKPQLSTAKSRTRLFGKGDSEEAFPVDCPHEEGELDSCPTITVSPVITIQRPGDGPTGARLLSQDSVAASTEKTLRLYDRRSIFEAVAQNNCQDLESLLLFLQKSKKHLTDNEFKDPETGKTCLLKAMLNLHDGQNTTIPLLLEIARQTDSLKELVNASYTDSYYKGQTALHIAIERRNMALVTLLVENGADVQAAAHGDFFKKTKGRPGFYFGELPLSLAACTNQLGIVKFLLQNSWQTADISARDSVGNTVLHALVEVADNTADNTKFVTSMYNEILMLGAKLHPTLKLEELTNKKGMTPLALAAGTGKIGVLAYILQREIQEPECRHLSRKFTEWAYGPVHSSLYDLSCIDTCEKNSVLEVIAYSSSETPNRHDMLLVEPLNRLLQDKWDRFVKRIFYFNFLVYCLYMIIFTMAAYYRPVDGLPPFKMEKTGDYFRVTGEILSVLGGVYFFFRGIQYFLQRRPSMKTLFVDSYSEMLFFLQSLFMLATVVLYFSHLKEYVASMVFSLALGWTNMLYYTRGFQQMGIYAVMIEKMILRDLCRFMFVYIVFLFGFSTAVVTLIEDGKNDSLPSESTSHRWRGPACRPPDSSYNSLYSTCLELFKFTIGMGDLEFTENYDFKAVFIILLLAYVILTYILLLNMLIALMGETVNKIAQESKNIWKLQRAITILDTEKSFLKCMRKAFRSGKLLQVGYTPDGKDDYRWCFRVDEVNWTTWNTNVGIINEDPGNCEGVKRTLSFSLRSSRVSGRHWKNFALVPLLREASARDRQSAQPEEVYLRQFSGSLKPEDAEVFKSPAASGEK
From the text: as §1, §2

[5] = target: T4, hASIC3 channel (Homo sapiens, UniProt Q9UHC3); experiment: ASIC3 channel functional assay (buffer pH 5.5); assay type: cell-based
T4 construct: Eurofins-CEREP or Eurofins-PANLABS (contract assay)
T4 sequence (Q9UHC3 1-531): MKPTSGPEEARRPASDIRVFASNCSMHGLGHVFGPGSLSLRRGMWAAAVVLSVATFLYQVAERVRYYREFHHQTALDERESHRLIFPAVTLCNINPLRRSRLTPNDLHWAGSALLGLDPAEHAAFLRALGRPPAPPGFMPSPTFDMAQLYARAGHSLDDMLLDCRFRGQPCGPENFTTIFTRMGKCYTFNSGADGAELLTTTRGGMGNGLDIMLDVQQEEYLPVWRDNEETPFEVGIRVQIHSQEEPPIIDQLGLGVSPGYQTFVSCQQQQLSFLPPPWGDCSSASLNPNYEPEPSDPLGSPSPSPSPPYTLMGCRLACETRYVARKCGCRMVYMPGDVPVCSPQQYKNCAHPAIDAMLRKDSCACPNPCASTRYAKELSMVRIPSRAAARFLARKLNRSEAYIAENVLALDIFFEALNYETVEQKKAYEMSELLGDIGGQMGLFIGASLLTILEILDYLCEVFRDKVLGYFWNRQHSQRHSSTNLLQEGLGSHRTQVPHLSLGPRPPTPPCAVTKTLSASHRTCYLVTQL
From the text: as §1, §2

[6] = target: T3, hTRPV1; parameters: method as in PMID 35269831; settings: model compound; cited from earlier work
[7] = target: T5, rTRPM8 (Rattus norvegicus, UniProt Q8R455); experiment: Patch-Clamp electrophysiology on single HEK293 cells expressing rat TRPM8; assay type: cell-based; settings: activation by 100 µM menthol; holding voltage −60 mV
T5 construct: expressed in transfected cells
T5 sequence (Q8R455 whole entry): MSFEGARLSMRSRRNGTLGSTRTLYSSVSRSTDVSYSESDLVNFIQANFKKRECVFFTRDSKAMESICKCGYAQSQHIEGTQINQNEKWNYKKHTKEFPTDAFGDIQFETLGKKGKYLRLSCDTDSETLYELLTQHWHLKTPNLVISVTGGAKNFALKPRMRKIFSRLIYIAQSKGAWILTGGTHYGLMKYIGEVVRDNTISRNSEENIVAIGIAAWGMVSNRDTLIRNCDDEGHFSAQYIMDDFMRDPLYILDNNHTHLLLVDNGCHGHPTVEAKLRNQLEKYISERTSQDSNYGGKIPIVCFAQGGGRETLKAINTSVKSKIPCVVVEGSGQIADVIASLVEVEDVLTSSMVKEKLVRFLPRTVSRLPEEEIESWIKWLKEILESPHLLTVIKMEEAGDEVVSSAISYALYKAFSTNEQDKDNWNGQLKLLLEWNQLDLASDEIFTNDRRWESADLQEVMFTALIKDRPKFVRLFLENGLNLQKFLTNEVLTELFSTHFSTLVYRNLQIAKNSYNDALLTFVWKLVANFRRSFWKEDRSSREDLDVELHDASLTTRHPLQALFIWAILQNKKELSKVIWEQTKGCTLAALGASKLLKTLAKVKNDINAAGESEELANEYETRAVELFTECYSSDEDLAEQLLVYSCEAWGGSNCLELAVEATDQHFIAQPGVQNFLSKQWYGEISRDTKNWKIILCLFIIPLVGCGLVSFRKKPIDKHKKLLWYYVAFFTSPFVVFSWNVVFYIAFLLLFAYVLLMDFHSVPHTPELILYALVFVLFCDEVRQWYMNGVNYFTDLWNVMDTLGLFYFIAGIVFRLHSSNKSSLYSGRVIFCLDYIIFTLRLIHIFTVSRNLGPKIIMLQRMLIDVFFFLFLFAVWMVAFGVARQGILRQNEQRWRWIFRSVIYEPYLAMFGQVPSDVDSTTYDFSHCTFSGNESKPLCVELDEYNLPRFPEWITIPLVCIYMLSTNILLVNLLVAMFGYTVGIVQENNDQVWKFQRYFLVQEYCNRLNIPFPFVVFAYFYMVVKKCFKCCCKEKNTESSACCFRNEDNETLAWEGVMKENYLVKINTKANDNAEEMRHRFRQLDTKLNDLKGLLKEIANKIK
From the text: A recent research study using Patch-Clamp, among other techniques, established that menthol occupies a cavity within the TRPM8 S1–S4 transmembrane helix, with the OH group forming an H-bond with the δ-NH of R842 residue, and Van der Waals interactions among the methyl groups of the ^iPr moiety and residues I846 and L843 [41].
This is evident by a negligible current at negative potentials and a linear intensification of the ohmic current at positive voltages. When applying compound 34 at a concentration of […], a noticeable reduction in menthol-induced activity at depolarizing voltages was observed (indicated by the red line) compared to menthol alone. Dose–response relationships for both tested compounds were established through triplicate experiments at various concentrations, applying a holding voltage of −60 mV (as shown in Figure 2B).
as §2
Figure 2 Compound 34 blocks TRPM8-mediated responses evoked by menthol in rTRPM8-expressing HEK293 cells. (A) IV curves obtained after exposure to vehicle solution (green trace), 100 µM menthol (blue trace) and 100 µM menthol + 10 µM 34 (red trace). Peak current data were expressed as pA/pF (to allow comparison among different size cells). Each point is the mean ± SEM of n = 15. (B) Concentration/response curves for rTRPM8 current blockade by 34 at a holding voltage of −60 mV. […]

[8] = target: hM3 (Homo sapiens, UniProt P20309); experiment: Radioligand binding at muscarinic M3 receptor; settings: radioligand [3H]4-DMAP
hM3, sequence (P20309 whole entry): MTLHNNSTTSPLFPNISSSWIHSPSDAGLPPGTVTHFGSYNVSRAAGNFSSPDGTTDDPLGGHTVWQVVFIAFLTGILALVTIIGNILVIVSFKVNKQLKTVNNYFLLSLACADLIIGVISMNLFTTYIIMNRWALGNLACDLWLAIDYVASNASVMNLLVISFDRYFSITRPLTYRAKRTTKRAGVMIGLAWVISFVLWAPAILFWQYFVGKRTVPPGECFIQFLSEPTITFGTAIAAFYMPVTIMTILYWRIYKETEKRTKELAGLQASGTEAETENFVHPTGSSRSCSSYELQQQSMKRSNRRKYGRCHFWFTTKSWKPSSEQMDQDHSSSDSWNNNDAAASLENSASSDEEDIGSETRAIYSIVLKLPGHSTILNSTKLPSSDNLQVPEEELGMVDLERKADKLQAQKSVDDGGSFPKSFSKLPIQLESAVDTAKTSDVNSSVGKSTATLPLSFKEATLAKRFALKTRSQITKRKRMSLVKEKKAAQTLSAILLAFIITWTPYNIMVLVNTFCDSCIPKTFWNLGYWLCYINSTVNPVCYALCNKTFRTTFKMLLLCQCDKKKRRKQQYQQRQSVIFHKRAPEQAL
From the text: as §3

[9] = target: hCGRPR (Homo sapiens, UniProt O60894+Q16602); experiment: Radioligand binding at CGRP receptor; settings: radioligand [125]hGCRPα
hCGRPR, sequence (Q16602 23-461): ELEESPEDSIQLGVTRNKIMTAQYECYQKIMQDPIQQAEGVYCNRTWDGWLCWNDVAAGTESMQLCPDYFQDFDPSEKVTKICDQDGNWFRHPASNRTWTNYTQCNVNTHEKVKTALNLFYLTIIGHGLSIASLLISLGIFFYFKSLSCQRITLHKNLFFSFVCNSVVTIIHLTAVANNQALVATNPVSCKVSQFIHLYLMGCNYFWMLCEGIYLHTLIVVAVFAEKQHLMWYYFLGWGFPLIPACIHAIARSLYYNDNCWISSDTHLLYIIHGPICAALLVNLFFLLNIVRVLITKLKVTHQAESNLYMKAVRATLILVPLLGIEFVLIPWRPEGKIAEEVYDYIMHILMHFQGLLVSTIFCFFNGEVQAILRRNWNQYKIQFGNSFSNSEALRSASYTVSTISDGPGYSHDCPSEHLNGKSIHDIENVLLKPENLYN
hCGRPR, sequence (O60894 27-148): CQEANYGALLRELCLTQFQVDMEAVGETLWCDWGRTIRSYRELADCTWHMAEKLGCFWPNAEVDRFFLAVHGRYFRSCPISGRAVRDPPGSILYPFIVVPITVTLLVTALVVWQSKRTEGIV
From the text: as §3

[10] = test system: dorsal root ganglia (DRG) sensory neurons; experiment: Resting membrane potential of DRG sensory neurons (current clamp Patch-Clamp); assay type: cell-based; settings: 10 µM
Protocol: We also investigated the effect of β-lactams derivatives on the resting membrane potential (RMP) of dorsal root ganglia (DRG) sensory neurons.
(A) Representative recordings of resting membrane potential measured under current clamp configuration. The traces show the action potentials (APs) firings from DRG neurons elicited by 100 μM menthol (left trace) or in the presence of vehicle (0.5% DMSO) or the β-lactams derivatives ([…]). (B) Changes in the Vm in the absence and in the presence of 10 μM of the β-lactams derivatives. Data were analyzed by one-way ANOVA followed by Bonferroni post hoc test for multiple comparisons (ns = no significance, **** p < = 0.0001) and given as mean ± SEM; n ≥ 40 cells from 4 cultures.

[11] = test system: oxaliplatin-induced cold hypersensitivity; experiment: Oxaliplatin-induced cold allodynia in mice (acetone drop test); assay type: in vivo
From the text: It is established that treatments with the chemotherapeutic drug oxaliplatin (OXA) induce painful peripheral neuropathy, known as CIPN, which becomes more pronounced in cold conditions. The TRPM8 channel has been implicated in mouse models of CIPN pain induced by OXA [19, 51]. In fact, the OXA-induced peripheral neuropathy mouse model is being used for the pharmacological characterization of TRPM8 antagonists. For this peripheral neuropathy assay, mice were subcutaneously (s.c.) injected with OXA at a dose of 6 mg/kg dose on days 1, 3 and 5 to male mice to induce increased sensitivity to cold, which can be monitored through the acetone drop test.
Consequently, compounds 34 and 35 have been tested for their ability to alleviate OXA-induced cold hypersensitivity after intraplantar administration (i.pl., 3, 1 and 0.1 μg). […] This effect was observed 15 min post-administration and sustained up to 60 min.
as §2
Figure 4 Effects of compounds 34 (A) and 35 (B) on the oxaliplatin (OXP)-induced cold hypersensitivity (drop acetone test). Peripheral neuropathy was induced in male mice by injecting OXA (6 mg/kg, s.c.) on days 1, 3 and 5. Control animals were treated with vehicle. Compounds 34 (A) and 35 (B) (3 µg/i.pl., 1 µg/i.pl. and 0.1 µg/i.pl.) were administered to the OXP-treated animals, and the time-course of cold hypersensitivity was measured. Data are given ± SEM (n = 5). Statistical analysis, comparing with oxaliplatin-treated mice, was performed by two-way ANOVA followed by post hoc Bonferroni test by multiple comparisons: * […], ** p < 0.01, **** p < 0.0001.

[12] = target: T6, rat TRPM8 channel (rTRPM8) (Rattus norvegicus, UniProt Q8R455); experiment: Ca2+ microfluorimetry, menthol-induced Ca2+ entry in HEK293 cells overexpressing rTRPM8; assay type: cell-based; settings: Table 3; rTRPM8, HEK293, activation by 100 µM menthol
T6 construct: expressed in transfected cells
T6 sequence (Q8R455 whole entry): as the sequence (Q8R455 whole entry) above
Protocol: The diastereomeric 1,4,4-trisubstitutes β-lactams were evaluated as modulators of the TRPM8 channel by calcium microfluorimetry assays. These assays use a Human Embryonic Kidney 293 (HEK293) cell line that stably overexpressed rat TRPM8 channel (rTRPM8). […] Three separated experiments in triplicate were used.
The initial biological evaluation of this series of 1,3,4,4-tetrasubstituted β-lactams was performed by calcium microfluorimetry assays using the indicated HEK293 cell line overexpressing rTRPM8 channels.
as §2

[13] = target: hTRPM3 (Homo sapiens, UniProt Q9HCF6); experiment: TRPM3 channel Ca2+ microfluorimetry (pregnenolone sulfate 50 µM); assay type: cell-based; settings: 10 µM; read-out: degree of inhibition in the Ca^2+ influx induced by pregnenolone sulfate (TRPM3)
Protocol: as §1, with “First,” for “The effects of compound 34 have been evaluated on different ion channels and receptors implicated in pain-related processes to assess the selectivity for TRPM8 channels. First,”
as §2

[14] = target: T7, hTRPM8 (Homo sapiens, UniProt Q7Z2W7); experiment: Ca2+ microfluorimetry in HEK293 cells expressing human TRPM8; assay type: cell-based; settings: activation by 100 µM menthol; read-out: Ca^2+ Microfluorimetry Assays hTRPM8 IC50
T7 construct: expressed in transfected cells; host or cells: HEK293
Protocol: To further characterize this family of compounds, calcium microfluorimetry assays were conducted using the HEK293 cell line, which expresses the human isoform of the TRPM8 channel. Amide derivatives 34 and 35 were selected, and their outcomes were compared with those of the model compound 1 (Table 4). […] This behavior is not particular of these β-lactams, but it is similar to those observed for other TRPM8 antagonists.
as §2

inhibition at 10 µM [1] [%]	inhibition at 10 µM [2] [%]	inhibition at 10 µM [3] [%]	inhibition at 10 µM [4] [%]	inhibition at 10 µM [5] [%]	IC50 [7] [nM]	inhibition at 10 µM [8] [%]	inhibition at 10 µM [9] [%]	IC50 [12] [nM]	inhibition at 10 µM [13] [%]	IC50 [14] [nM]	Compound	activation on the TRPV1 channel [6]	effect on resting membrane potential (RMP) [10]	time the antiallodynic effect is sustained ([11]; i.pl., observed from 15 min post-administration)	effect on cold-induced paw licking ([11]; male mice, OXA 6 mg/kg s.c. days 1, 3, 5, i.pl. 3, 1 and 0.1 μg)
-6.3 ± 5.9	4.2 ± 1.1	7.3 ± 0.3	19.4 ± 1.7	6 ± 0.9	600 ± 1660	-4.1 ± 3.1	-1 ± 4.3				C[C@@H]1C(=O)N(C[C@H](Cc2ccccc2)N(Cc2ccccc2)Cc2ccccc2)[C@]1(Cc1ccccc1)C(=O)OC(C)(C)C [Compound 1]	about 30%			
					480 ± 1330			490 ± 1270	4.1 ± 10.8	3330 ± 1280	C[C@@H]1C(=O)N(C[C@H](Cc2ccccc2)N(Cc2ccccc2)Cc2ccccc2)[C@]1(Cc1ccccc1)C(=O)NCc1ccccc1 [Compound 35, 4S-Benzyl-4-[N-(benzyl)-carbamoyl]-3S-methyl-1-[(2′S-dibenzylamino-3′-phenyl)prop-1′-yl]-2-oxoazetidine]		did not alter the RMP	up to 60 min	dose-dependent and significant reduction
